Experimental data taken from patent US20150307520A1, “NOVEL HETEROARYL AND HETEROCYCLE COMPOUNDS, COMPOSITIONS AND METHODS THEREOF” (HUTCHISON MEDIPHARMA LIMITED, priority 2012, published 2015).
pIC50: −log10 of the molar value.

How the values were obtained:
Type in all cases: biochemical
p110δ/p85α = p110δ/p85α (Homo sapiens, UniProt O00329); assay: Transcreener KINASE Assay, kinase inhibition of p110δ/p85α; settings: for PI3Kδ IH % @ 1 uM: 1 uM test compound; for pIC50: read-out: PI3Kδ IC50
Description: (§1) PI3K kinases including p110α/p85α, p110δ/p85α and p110γ are purchased from Invitrogen, and p110β/p85α is from Millipore.
(§2) Primary screening data and IC50 values are measured using Transcreener™ KINASE Assay (Bellbrook, Catalog #3003-10K). […] It is a universal, homogenous, high throughput screening (HTS) technology using a far-red, competitive fluorescence polarization immunoassay based on the detection of ADP to monitor the activity of enzymes that catalyze group transfer reactions. Briefly, the Transcreener KINASE Assay is designed as a simple two-part, endpoint assay.
(§3) In the first step, the 25 ul kinase reaction is performed by preparing a reaction mixture containing 5 ul test compound (2% DMSO final concentration), 10 ul kinase, buffer (50 mM HEPES, 100 mM NaCl, 1 mM EGTA, 0.03% CHAPS, 3 mM MgCl2, and freshly supplemented 1 mM DTT), and 10 ul 30 uM PIP2/10 uM ATP. The plate is sealed and incubated for 80 min at room temperature. Next, 25 ul ADP detection mix is added per well. The plate is sealed again and incubated for 60 min at room temperature, and then measure fluorescence polarization by Tecan Infinite F500 Reader.
(§4) Data is analyzed and IC50s are generated using the add-in software for Microsoft Excel, Xlfit™ (version 2.0). IH %=(ADP amount under 2% DMSO-ADP amount under test compound)/ADP amount under 2% DMSO.

p110γ = p110γ (Homo sapiens, UniProt P48736); assay: Transcreener KINASE Assay, kinase inhibition of p110γ; settings: for PI3Kγ IH % @ 1 uM: 1 uM test compound; for pIC50: read-out: PI3Kγ IC50
Sequence of p110γ (P48736 whole entry): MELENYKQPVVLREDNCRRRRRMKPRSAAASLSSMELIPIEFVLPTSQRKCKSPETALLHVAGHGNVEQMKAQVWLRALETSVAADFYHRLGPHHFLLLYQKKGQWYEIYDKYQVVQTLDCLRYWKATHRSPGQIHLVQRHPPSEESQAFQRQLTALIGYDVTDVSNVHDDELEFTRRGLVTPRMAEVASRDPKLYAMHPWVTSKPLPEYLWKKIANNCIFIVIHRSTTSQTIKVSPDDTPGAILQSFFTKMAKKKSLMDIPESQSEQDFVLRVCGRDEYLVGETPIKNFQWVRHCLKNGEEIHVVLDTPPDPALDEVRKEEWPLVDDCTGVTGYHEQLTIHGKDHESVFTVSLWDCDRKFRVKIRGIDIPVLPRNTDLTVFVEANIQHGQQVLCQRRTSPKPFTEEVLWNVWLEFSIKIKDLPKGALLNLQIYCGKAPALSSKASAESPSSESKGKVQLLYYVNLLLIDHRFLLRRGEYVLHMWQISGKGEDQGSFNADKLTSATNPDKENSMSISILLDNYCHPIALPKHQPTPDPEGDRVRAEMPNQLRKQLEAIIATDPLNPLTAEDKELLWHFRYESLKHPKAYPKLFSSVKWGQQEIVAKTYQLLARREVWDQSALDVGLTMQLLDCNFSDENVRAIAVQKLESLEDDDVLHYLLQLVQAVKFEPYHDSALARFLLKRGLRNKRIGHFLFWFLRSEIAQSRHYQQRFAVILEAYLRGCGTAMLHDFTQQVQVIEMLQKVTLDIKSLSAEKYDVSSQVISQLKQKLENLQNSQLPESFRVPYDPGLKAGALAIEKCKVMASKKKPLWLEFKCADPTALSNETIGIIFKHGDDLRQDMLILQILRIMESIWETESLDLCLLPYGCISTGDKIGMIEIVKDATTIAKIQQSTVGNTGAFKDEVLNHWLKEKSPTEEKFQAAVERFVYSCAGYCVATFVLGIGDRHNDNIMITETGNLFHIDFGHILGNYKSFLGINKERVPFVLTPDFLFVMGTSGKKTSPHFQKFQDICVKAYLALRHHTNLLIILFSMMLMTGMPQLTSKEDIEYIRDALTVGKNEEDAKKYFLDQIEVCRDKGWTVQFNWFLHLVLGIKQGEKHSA
Description: Kinase Inhibition assays of p110α/p85α, p110β/p85α, p110δ/p85α and p110γ PI3K kinases including p110α/p85α, p110δ/p85α and p110γ are purchased from Invitrogen, and p110β/p85α is from Millipore. Primary screening data and IC50 values are measured using Transcreener™ KINASE Assay (Bellbrook, Catalog #3003-10K). […] It is a universal, homogenous, high throughput screening (HTS) technology using a far-red, competitive fluorescence polarization immunoassay based on the detection of ADP to monitor the activity of enzymes that catalyze group transfer reactions. Briefly, the Transcreener KINASE Assay is designed as a simple two-part, endpoint assay. […] The plate is sealed and incubated for 80 min at room temperature. Next, 25 ul ADP detection mix is added per well. The plate is sealed again and incubated for 60 min at room temperature, and then measure fluorescence polarization by Tecan Infinite F500 Reader. Data is analyzed and IC50s are generated using the add-in software for Microsoft Excel, Xlfit™ (version 2.0).

p110β/p85α = p110β/p85α (Homo sapiens, UniProt P42338); assay: Transcreener KINASE Assay, kinase inhibition of p110β/p85α; settings: for PI3Kβ IH % @ 1 uM: 1 uM test compound; for pIC50: read-out: PI3Kβ IC50
Sequence of p110β/p85α (P42338 whole entry): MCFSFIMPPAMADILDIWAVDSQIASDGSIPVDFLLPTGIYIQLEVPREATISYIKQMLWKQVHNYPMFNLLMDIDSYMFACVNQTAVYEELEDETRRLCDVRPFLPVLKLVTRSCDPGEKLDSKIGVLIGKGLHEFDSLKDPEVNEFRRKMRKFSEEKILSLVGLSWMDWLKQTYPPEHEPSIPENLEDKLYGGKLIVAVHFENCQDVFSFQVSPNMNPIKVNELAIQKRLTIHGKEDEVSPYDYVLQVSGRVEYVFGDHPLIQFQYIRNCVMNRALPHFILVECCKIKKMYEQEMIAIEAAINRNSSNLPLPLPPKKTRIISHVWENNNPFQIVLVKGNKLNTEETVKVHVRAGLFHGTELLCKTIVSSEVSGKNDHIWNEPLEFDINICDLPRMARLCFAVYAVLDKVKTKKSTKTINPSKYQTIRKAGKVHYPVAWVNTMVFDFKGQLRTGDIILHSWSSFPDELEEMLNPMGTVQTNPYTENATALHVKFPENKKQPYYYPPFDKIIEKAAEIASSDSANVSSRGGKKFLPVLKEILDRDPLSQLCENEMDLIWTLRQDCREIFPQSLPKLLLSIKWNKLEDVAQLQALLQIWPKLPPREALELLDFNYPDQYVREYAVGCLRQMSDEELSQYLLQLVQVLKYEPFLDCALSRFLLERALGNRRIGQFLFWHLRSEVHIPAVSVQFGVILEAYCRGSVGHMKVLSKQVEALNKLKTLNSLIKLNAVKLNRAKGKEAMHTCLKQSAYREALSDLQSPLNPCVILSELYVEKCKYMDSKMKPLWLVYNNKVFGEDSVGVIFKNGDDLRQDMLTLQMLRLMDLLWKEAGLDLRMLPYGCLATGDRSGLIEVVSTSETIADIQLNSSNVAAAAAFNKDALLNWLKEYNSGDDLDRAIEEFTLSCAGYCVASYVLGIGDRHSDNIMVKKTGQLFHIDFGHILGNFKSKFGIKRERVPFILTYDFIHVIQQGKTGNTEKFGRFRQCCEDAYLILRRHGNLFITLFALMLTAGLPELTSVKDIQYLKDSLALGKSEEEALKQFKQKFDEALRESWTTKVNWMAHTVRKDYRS
Sequence of p110β/p85α (P27986 2-724 partner): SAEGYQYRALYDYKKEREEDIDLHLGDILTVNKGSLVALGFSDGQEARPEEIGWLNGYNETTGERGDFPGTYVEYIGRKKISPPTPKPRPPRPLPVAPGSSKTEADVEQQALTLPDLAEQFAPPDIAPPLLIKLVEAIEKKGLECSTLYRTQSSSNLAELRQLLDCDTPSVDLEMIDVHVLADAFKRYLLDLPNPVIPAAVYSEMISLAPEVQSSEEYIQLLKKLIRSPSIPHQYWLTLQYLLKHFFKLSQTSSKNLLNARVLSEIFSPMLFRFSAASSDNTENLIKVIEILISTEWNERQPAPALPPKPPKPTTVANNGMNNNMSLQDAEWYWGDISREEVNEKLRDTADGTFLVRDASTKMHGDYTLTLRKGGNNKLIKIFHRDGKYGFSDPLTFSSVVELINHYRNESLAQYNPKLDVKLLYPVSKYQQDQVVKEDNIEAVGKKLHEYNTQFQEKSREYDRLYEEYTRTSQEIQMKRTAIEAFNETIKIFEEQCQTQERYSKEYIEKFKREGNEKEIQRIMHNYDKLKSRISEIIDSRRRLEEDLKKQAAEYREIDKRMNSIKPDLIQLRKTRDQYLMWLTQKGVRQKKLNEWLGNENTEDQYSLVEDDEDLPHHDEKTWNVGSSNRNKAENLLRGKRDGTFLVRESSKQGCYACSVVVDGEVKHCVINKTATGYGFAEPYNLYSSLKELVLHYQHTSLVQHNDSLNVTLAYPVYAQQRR
Description: as §1, §2, §3, §4

Sequence of p110δ/p85α (O00329 whole entry): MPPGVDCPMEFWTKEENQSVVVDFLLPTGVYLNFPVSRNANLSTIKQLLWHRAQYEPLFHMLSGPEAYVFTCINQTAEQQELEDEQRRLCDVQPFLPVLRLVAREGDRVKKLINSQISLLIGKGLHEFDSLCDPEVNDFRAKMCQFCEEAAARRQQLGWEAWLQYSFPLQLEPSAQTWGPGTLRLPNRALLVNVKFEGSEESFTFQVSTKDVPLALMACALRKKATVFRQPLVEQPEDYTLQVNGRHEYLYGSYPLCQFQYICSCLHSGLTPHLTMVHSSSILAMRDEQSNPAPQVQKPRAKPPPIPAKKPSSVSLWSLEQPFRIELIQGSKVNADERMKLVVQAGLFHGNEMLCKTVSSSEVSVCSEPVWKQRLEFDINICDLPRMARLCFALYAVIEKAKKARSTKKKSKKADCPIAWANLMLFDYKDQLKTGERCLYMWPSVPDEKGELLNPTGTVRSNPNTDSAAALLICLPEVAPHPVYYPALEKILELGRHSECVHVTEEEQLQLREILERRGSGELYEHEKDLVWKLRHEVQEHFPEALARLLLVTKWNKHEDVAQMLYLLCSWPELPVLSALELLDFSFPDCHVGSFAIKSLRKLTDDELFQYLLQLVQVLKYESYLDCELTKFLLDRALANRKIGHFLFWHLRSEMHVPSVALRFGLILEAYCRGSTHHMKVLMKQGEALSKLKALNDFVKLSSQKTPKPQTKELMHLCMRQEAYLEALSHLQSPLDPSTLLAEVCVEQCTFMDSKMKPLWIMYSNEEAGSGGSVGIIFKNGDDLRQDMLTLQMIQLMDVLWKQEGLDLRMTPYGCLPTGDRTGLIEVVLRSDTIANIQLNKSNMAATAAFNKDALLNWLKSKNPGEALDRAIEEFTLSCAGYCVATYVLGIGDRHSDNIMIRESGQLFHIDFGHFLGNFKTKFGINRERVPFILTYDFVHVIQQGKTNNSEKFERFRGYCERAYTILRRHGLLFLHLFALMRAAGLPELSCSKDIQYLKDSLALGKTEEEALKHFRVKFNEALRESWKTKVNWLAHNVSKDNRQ
Sequence of p110δ/p85α (P27986 whole entry partner): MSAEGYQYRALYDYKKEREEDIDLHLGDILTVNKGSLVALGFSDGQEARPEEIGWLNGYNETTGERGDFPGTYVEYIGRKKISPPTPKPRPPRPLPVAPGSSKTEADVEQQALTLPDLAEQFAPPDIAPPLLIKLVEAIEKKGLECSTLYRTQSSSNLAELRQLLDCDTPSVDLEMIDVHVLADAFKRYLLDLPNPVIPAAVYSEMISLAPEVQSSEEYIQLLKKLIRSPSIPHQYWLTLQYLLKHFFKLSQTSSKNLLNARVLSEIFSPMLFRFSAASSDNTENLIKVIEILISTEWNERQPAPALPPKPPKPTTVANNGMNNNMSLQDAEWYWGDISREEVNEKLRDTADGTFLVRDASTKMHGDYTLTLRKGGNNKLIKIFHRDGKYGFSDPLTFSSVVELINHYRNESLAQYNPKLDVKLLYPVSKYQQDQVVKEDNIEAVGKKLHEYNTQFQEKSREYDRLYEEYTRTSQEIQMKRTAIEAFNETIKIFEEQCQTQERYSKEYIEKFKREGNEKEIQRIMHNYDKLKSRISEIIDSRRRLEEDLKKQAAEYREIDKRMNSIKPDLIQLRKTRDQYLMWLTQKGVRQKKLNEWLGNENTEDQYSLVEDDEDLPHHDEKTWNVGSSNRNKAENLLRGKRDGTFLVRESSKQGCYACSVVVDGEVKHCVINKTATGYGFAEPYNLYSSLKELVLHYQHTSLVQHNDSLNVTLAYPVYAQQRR

SMILES | PI3Kδ IH % @ 1 uM (p110δ/p85α) [%] | pIC50 (p110δ/p85α) | PI3Kγ IH % @ 1 uM (p110γ) [%] | pIC50 (p110γ) | PI3Kβ IH % @ 1 uM (p110β/p85α) [%] | pIC50 (p110β/p85α)
NC(=O)c1c[nH]c2ncnc(N3CCC[C@H]3c3nn4ccc(Cl)c4c(=O)n3-c3ccccc3)c12 [Compound 95] | 97.6 | 9.00 | >100 | 8.15 | 82.0 | 7.44
CNC(=O)c1c[nH]c2ncnc(N3CCC[C@H]3c3nn4ccc(Cl)c4c(=O)n3-c3ccccc3)c12 [Compound 96] | 97.3 | 7.62 | 94.3 | 7.15 | 73.4 | 6.77
CN(C)C(=O)c1c[nH]c2ncnc(N3CCC[C@H]3c3nn4ccc(Cl)c4c(=O)n3-c3ccccc3)c12 [Compound 97] | 55.1 |  | 84.6 | 6.84 | 45.1 | 
COc1ncc(-c2c[nH]c3ncnc(N4CC[C@H]4c4nn5ccc(Cl)c5c(=O)n4-c4ccccc4)c23)cn1 [Compound 100] | >100 | 9.00 | >100 | 8.30 | 89.8 | 8.22
COc1ccc(-c2c[nH]c3ncnc(N4CC[C@H]4c4nn5ccc(Cl)c5c(=O)n4-c4ccccc4)c23)cn1 [Compound 102] | >100 | 9.00 | >100 | 7.85 | 92.3 | 7.21
N#Cc1ncc(-c2c[nH]c3ncnc(N4CC[C@H]4c4nn5ccc(Cl)c5c(=O)n4-c4ccccc4)c23)cn1 [Compound 103] | 99.7 | 9.00 | 98.2 | 7.72 | >100 | 7.34
Nc1ncc(-c2c[nH]c3ncnc(N4CC[C@H]4c4nn5ccc(Cl)c5c(=O)n4-c4ccccc4)c23)cn1 [Compound 104] | >100 |  | >100 | 8.52 | >100 | 7.77
C#Cc1ccn2nc([C@@H]3CCN3c3ncnc4[nH]cc(C#N)c34)n(-c3ccccc3)c(=O)c12 [Compound 105, (S)-4-(2-(5-ethynyl-4-oxo-3-phenyl-3,4-dihydropyrrolo[2,1-f][1,2,4]triazin-2-yl)azetidin-1-yl)-7H-pyrrolo[2,3-d]pyrimidine-5-carbonitrile] | 90.0 | 7.82 | 90.4 | 7.10 | 16.0 | 
CC(C)Cn1c([C@@H]2CCCN2c2ncnc3[nH]cc(C#N)c23)nn2c(F)ccc2c1=O [Compound 107, (S)-4-(2-(7-fluoro-3-isobutyl-4-oxo-3,4-dihydropyrrolo[2,1-f][1,2,4]triazin-2-yl)pyrrolidin-1-yl)-7H-pyrrolo[2,3-d]pyrimidine-5-carbonitrile] | 98.6 | 8.30 | 71.8 | 6.82 | 34.5 | 
COc1ccc(-c2c(N)ncnc2N2CC[C@H]2c2nn3ccc(Cl)c3c(=O)n2-c2ccccc2)cn1 [Compound 108, (S)-2-(1-(6-amino-5-(6-methoxypyridin-3-yl)pyrimidin-4-yl)azetidin-2-yl)-5-chloro-3-phenylpyrrolo[2,1-f][1,2,4]triazin-4(3H)-one] | 75.9 |  | 90.0 |  | 26.9 | 
COc1ccc(-c2n[nH]c3ncnc(N4CCC[C@H]4c4nn5ccc(Cl)c5c(=O)n4-c4ccccc4)c23)cn1 [Compound 109] | 99.8 | 8.40 | 98.3 | 6.72 | 61.0 | 
N#Cc1n[nH]c2ncnc(N3CCC[C@H]3c3nn4ccc(Cl)c4c(=O)n3-c3ccccc3)c12 [Compound 111, (S)-4-(2-(5-chloro-4-oxo-3-phenyl-3,4-dihydropyrrolo[2,1-f][1,2,4]triazin-2-yl)pyrrolidin-1-yl)-1H-pyrazolo[3,4-d]pyrimidine-3-carbonitrile] | 93.9 | 7.35 | 67.2 |  | 39.0 | 
O=c1c2c(Cl)ccn2nc([C@@H]2CCN2c2nc(N3CCOCC3)nc3[nH]cnc23)n1-c1ccccc1 [Compound 114, (S)-5-chloro-2-(1-(2-morpholino-9H-purin-6-yl)azetidin-2-yl)-3-phenylpyrrolo[2,1-f][1,2,4]triazin-4(3H)-one] | 93.7 | 7.57 | 4.3 |  | 86.4 | 6.80
CC(Nc1ncnc2[nH]cnc12)c1cc2ncc(Cl)n2c(=O)n1-c1ccccc1 (centres unmarked) [Compound 115, 7-(1-(9H-purin-6-ylamino)ethyl)-3-chloro-6-phenylimidazo[1,2-c]pyrimidin-5(6H)-one] | >100 | 8.70 | 91.7 | 8.52 | 80.2 | 6.84
CC(Nc1ncnc2[nH]cc(C#N)c12)c1cc2ncc(Cl)n2c(=O)n1-c1ccccc1 (centres unmarked) [Compound 116] | >100 | 8.30 | 96.9 | 7.35 | >100 | 6.89
CC(Nc1ncnc(N)c1C#N)c1cc2ncc(Cl)n2c(=O)n1-c1ccccc1 (centres unmarked) [Compound 117] | >100 | 8.30 | >100 | 7.37 | >100 | 7.42
CC(Nc1ncnc2[nH]cc(C#N)c12)c1cc2ncc(Cl)n2c(=O)n1-c1cccc(F)c1 (centres unmarked) [Compound 118] | 77.5 | 6.33 | 5.2 |  | 19.1 | 
CC(Nc1ncnc2[nH]cnc12)c1cc2cccn2c(=O)n1-c1ccccc1 (centres unmarked) [Compound 119, 3-(1-(9H-purin-6-ylamino)ethyl)-2-phenylpyrrolo[1,2-c]pyrimidin-1(2H)-one] | 94.3 |  | 85.6 | 6.62 | 47.8 | 
CC(Nc1ncnc(N)c1C#N)c1cc2cccn2c(=O)n1-c1ccccc1 (centres unmarked) [Compound 120] | >100 |  | 85.9 | 6.53 | 74.7 | 6.63
CC(Nc1ncnc2[nH]cnc12)c1cc2ccc(Cl)n2c(=O)n1-c1ccccc1 (centres unmarked) [Compound 122, 3-(1-(9H-purin-6-ylamino)ethyl)-7-chloro-2-phenylpyrrolo[1,2-c]pyrimidin-1(2H)-one] | >100 | 8.52 | >100 | 8.10 | 88.3 | 7.29
CC(Nc1ncnc2[nH]cc(C#N)c12)c1cc2ccc(Cl)n2c(=O)n1-c1ccccc1 (centres unmarked) [Compound 124] | 98.0 | 8.70 | >100 | 7.92 | 95.0 | 7.66
CC(Nc1ncnc(N)c1C#N)c1cc2ccc(Cl)n2c(=O)n1-c1ccccc1 (centres unmarked) [Compound 125] | >100 | 9.00 | 94.0 | 8.52 | 95.7 | 8.22
CC(Nc1ncnc(N)c1C#N)c1cc2c(Cl)cc(Cl)n2c(=O)n1-c1ccccc1 (centres unmarked) [Compound 126] | >100 | 9.00 | >100 | 7.70 | 90.9 | 7.60
CC(Nc1ncnc2[nH]cc(C#N)c12)c1cc2c(Cl)cc(Cl)n2c(=O)n1-c1cccc(F)c1 (centres unmarked) [Compound 129] | 97.8 | 7.74 | 33.3 |  | 17.8 | 
O=c1c2c(F)ccn2nc([C@@H]2C[C@H](F)CN2c2ncnc3[nH]cnc23)n1-c1ccccc1 [Compound 132, 5-fluoro-2-((2S,4S)-4-fluoro-1-(9H-purin-6-yl)pyrrolidin-2-yl)-3-phenylpyrrolo[2,1-f][1,2,4]triazin-4(3H)-one] | >100 | 8.05 | >100 | 7.15 | 74.5 | 6.47
